From ChEMBL document CHEMBL1150989, “Identification and characterisation of an inhibitor of interleukin-8: a receptor based approach” (Bioorg Med Chem Lett, 1996)
Where a SMILES comes first, the peptide text is derived from it. [ ]: non-standard residue; d: D form. Abu = CC[C@H](N)C(=O)O

Key:
[1] = target: T1, Interleukin-8 receptors, CXCR1/CXCR2 (Homo sapiens, UniProt P25025+P25024); experiment: Inhibitory activity against interleukin-8 receptor using [125I]IL8; type: protein assay
T1 sequence (P25025 whole entry): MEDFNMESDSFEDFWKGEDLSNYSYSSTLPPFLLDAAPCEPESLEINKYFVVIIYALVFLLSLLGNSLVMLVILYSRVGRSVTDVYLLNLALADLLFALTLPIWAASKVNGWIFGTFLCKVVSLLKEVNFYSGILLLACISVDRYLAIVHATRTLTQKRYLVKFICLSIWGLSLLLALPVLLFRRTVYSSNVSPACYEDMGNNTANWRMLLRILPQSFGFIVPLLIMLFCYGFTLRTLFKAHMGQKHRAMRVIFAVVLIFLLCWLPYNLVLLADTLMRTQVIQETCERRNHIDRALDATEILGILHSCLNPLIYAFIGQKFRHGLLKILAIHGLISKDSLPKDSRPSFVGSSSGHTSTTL
T1 sequence (P25024 whole entry): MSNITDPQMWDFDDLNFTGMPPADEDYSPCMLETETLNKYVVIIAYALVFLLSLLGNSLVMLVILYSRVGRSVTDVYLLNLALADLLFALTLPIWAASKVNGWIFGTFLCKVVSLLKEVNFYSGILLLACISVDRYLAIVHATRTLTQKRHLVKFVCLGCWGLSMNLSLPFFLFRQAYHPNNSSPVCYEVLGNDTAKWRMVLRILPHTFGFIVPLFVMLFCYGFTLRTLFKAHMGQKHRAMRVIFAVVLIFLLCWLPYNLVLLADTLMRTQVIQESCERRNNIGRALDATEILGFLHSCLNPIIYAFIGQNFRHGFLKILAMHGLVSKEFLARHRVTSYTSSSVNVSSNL

[2] = target: T1, Interleukin-8 receptors, CXCR1/CXCR2; experiment: Compound was tested for inhibitory activity against Interleukin-8 receptor; type: protein assay

Row | Ki [1] [µM] | IC50 [2] [µM] | Compound
1 | 1850 | – | Ac-FTGMPPADEDYSP-NH2
2 | > 1 | – | CC[C@H](NC(=O)[C@@H](NC(C)=O)C(C)C)C(=O)N[C@@H](Cc1ccc(O)cc1)C(=O)N[C@@H](CCC(=O)O)C(=O)N[C@H](C(=O)N[C@@H](CC(C)C)C(=O)NCC(=O)N[C@@H](CC(N)=O)C(=O)N[C@@H](CC(=O)O)C(=O)N[C@H](C(=O)N[C@@H](C)C(=O)N[C@@H](CCCCN)C(=O)N[C@@H](Cc1c[nH]c2ccccc12)C(=O)N[C@@H](CCCN=C(N)N)C(=O)N[C@@H](CCSC)C(=O)N[C@H](C(=O)N[C@@H](CC(C)C)C(=O)N[C@@H](CCCN=C(N)N)C(=O)N[C@H](C(N)=O)[C@@H](C)CC)C(C)C)[C@@H](C)O)C(C)C (Ac-V[Abu]YEVLGNDTAKWRMVLRI-NH2)
3 | 2050 | – | Ac-TGMPPADEDYSP-NH2
4 | 890 | – | Ac-GMPPADEDYSP-NH2
5 | 28 | – | Ac-MWAFDDLNFTGMPPADEDYSP-NH2
6 | 55 | – | Ac-MADFDDLNFTGMPPADEDYSP-NH2
7 | 2700 | – | Ac-NFTGMPPADEDYSP-NH2
8 | 23 | – | Ac-AWDFDDLNFTGMPPADEDYSP-NH2
9 | 68 | – | Ac-DFDDLNFTGMPPADEDYSP-NH2
10 | 1700 | – | CSCC[C@H](NC(C)=O)C(=O)N1CCC[C@H]1C(=O)N1CCC[C@H]1C(=O)N[C@@H](C)C(=O)N[C@@H](CC(=O)O)C(=O)N[C@@H](CCC(=O)O)C(=O)N[C@@H](CC(=O)O)C(=O)N[C@@H](Cc1ccc(O)cc1)C(=O)N[C@@H](CO)C(=O)N1CCC[C@H]1C(N)=O (stereo in doubt; form 2)
11 | > 30 | – | CC[C@H](NC(=O)[C@H](CC(C)C)NC(=O)[C@H](Cc1ccccc1)NC(=O)[C@@H](NC(=O)CNC(=O)[C@H](Cc1ccccc1)NC(=O)[C@@H](NC(=O)[C@H](Cc1c[nH]c2ccccc12)NC(=O)CNC(=O)[C@H](CC(N)=O)NC(=O)[C@@H](NC(C)=O)C(C)C)[C@@H](C)CC)[C@@H](C)O)C(=O)N[C@@H](CCCCN)C(=O)N[C@H](C(N)=O)C(C)C (Ac-VNGWIFGTFL[Abu]KV-NH2)
12 | 750 | – | Ac-DLNFTGMPPADEDYSP-NH2
13 | 107 | – | Ac-MWDFDDLNATGMPPADEDYSP-NH2
14 | 27 | – | Ac-WDFDDLNFTGMPPADEDYSP-NH2
15 | > 30 | – | Ac-MSNITDPQMWDFDDLNFTG-NH2
16 | 49 | – | Ac-MWDADDLNFTGMPPADEDYSP-NH2
17 | 29 | – | Ac-MWDFDDLNFTGMPPADADYSP-NH2
18 | 1.7 | – | CSCC[C@H](NC(C)=O)C(=O)N1CCC[C@H]1C(=O)N1CCC[C@H]1C(=O)N[C@@H](C)C(=O)N[C@@H](CC(=O)O)C(=O)N[C@@H](CCC(=O)O)C(=O)N[C@@H](CC(=O)O)C(=O)N[C@@H](Cc1ccc(O)cc1)C(=O)N[C@@H](CO)C(=O)N1CCC[C@H]1C(N)=O (stereo in doubt; form 1)
19 | 5 | – | Ac-MWDFDDLNFAGMPPADEDYSP-NH2

Row | Ki [1] [µM] | IC50 [2] [µM] | Compound
20 | 190 | – | Ac-DDLNFTGMPPADEDYSP-NH2
21 | 62 | – | Ac-MWDFDALNFTGMPPADEDYSP-NH2
22 | 61 | – | Ac-MWDFDDANFTGMPPADEDYSP-NH2
23 | 42 | – | Ac-MWDFDDLAFTGMPPADEDYSP-NH2
24 | 15 | – | Ac-MWDFDDLNFTGMPPADEDYAP-NH2
25 | 120 | – | Ac-FDDLNFTGMPPADEDYSP-NH2
26 | 13 | 19 | Ac-MWDFDDLNFTGMPPADEDYSP-NH2
27 | 155 | – | Ac-MWDFDDLNFTGMPPADEDYSA-NH2
28 | 27 | – | Ac-MWDFDDLNFTGMPAADEDYSP-NH2
29 | > 1 | – | Ac-ADTLMRTQVIQETAERRNNIGRALDATEI-NH2
30 | 14 | – | Ac-MWDFDDLNFTGAPPADEDYSP-NH2
31 | 55 | – | Ac-MWDFDDLNFTGMPPAAEDYSP-NH2
32 | 3100 | – | Ac-LNFTGMPPADEDYSP-NH2
33 | 0.3 | – | CC[C@H](NC(=O)[C@@H]1CCCN1C(=O)[C@H](CO)NC(=O)[C@H](Cc1ccc(O)cc1)NC(=O)[C@H](CC(=O)O)NC(=O)[C@H](CCC(=O)O)NC(=O)[C@H](CC(=O)O)NC(=O)[C@H](C)NC(=O)[C@@H]1CCCN1C(=O)[C@@H]1CCCN1C(=O)[C@H](CCSC)NC(C)=O)C(=O)N[C@@H](CCSC)C(=O)N[C@@H](CC(C)C)C(=O)N[C@@H](CCC(=O)O)C(=O)N[C@H](C(=O)N[C@@H](CCC(=O)O)C(=O)N[C@H](C(=O)N[C@@H](CC(C)C)C(=O)N[C@@H](CC(N)=O)C(=O)N[C@@H](CCCCN)C(=O)N[C@@H](Cc1ccc(O)cc1)C(N)=O)[C@@H](C)O)[C@@H](C)O (Ac-MPPADEDYSP[Abu]MLETETLNKY-NH2)
34 | 42 | – | Ac-MWDFDDLNFTGMPPADEAYSP-NH2
35 | 32 | – | Ac-MWDFADLNFTGMPPADEDYSP-NH2
36 | 10 | – | Ac-FRQAYHPNNSSP-NH2
37 | 265 | – | Ac-MWDFDDLNFTGMPPADEDASP-NH2
38 | 400 | – | Ac-MWDFDDLNFTGMAPADEDYSP-NH2
